Experimental data reported in publication PMC4854023, “Orthology Analysis and In Vivo Complementation Studies to Elucidate the Role of DIR1 during Systemic Acquired Resistance in Arabidopsis thaliana and Cucumis sativus” (Frontiers in Plant Science, 2016).

How the values were obtained:
CsDIR1 = molecular target: T1, CsDIR1 (Cucumis sativus, UniProt A0A0A0K4Q7); assay: TNS fluorescence displacement; type: binding; details: 16 uM ligand; TNS 5 uM (methods) or 3 uM; pH 7 buffer; in cavity or allosteric
T1 construct: gene Csa_7G372360; Rosetta Gami E. coli; S-Tag thrombin purification; His-tagged
T1 sequence (A0A0A0K4Q7 25-103): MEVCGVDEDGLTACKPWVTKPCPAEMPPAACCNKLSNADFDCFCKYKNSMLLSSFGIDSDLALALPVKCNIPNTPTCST

CsDIR2 = molecular target: T2, CsDIR2 (Cucumis sativus, UniProt A0A0A0KZ41); assay: TNS fluorescence displacement; type: binding; details: 16 uM ligand; TNS 5 uM (methods) or 3 uM; pH 7 buffer; in cavity or allosteric
T2 construct: gene Csa_4G017140; Rosetta Gami E. coli; S-Tag thrombin purification; His-tagged
T2 sequence (A0A0A0KZ41 26-101): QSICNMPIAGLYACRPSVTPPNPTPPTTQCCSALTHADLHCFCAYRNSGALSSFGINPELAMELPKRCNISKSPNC

SMILES | % lower TNS fluorescence than MES control (CsDIR1) | % lower TNS fluorescence than MES control (CsDIR2)
O=C(O)CCCCCCCC(=O)O [AzA] | ~ 25% | ~ 30%
O=C(O)[C@@H]1CCCCN1 [Pip] | ~ 25% | 
